Series [1] can be described thus: In vitro human mitochondrial fraction intrinsic clearance of SPL026 with/without MAO-A and MAO-B inhibitors. The series is classed as in vitro ADME. The following applies: for half-life / microsomal CLint: 0.5 mg/mL human liver mitochondrial fraction.
Series [2] can be described thus: In vitro intrinsic clearance in human hepatocytes, D2, D6 and D8 DMT (third experiment). The conditions noted are these: both, hepatocytes (pooled, 10 donors).
The nature of series [3]: In vitro human mitochondrial fraction intrinsic clearance of SPL026 and SPL028 analogues. The following applies: for microsomal CLint: Intrinsic Clearance.
Series [4] is described as follows: In vitro intrinsic clearance in human hepatocytes with and without MAO inhibitors (first experiment). The following applies: both, human, hepatocytes (pooled, 10 donors), human hepatocytes.
For series [5], the system named is Human (mixed gender) hepatocytes. The series is described as above. The conditions noted are these: for Half-life % change / Intrinsic clearance % change: with MAO inhibitors vs no inhibitors.
Where [6] appears, read: with 100 nM Deprenyl/Selegiline (MAO-B inhibitor), Deprenyl (MAO-B inhibitor) 100 nM.
[7] abbreviates: with 100 nM clorgyline (MAO-A inhibitor), Clorgyline (MAO-A inhibitor) 100 nM.
[8] abbreviates: 0.5 mg/mL human liver mitochondrial fraction, first experiment r7-r12, repeat r13-r20.
Setting [9] is: human, liver mitochondrial fraction, Half-Life R1, human liver mitochondrial fraction, replicate R1.
[10] abbreviates: human, liver mitochondrial fraction, Half-Life R2, human liver mitochondrial fraction, replicate R2.
Where [11] appears, read: human, liver mitochondrial fraction, Half-Life R3, human liver mitochondrial fraction, replicate R3.
The mark [12] stands for this setting: human, liver mitochondrial fraction, Half-Life R4, human liver mitochondrial fraction, replicate R4.
Setting [13] is: human, liver mitochondrial fraction, Half-life, 0.5 mg/mL human liver mitochondrial fraction, first experiment r7-r12, repeat r13-r20.
[14] abbreviates: human, liver mitochondrial fraction, 0.5 mg/mL human liver mitochondrial fraction, first experiment r7-r12, repeat r13-r20.
The mark [15] stands for this setting: Half-life With inhibitors, with MAO-A/B inhibitor combination (Table 5).
Where [16] appears, read: Half-life Without inhibitors, without MAO-A/B inhibitor combination (Table 5).
[17] abbreviates: Intrinsic clearance With inhibitors, with MAO-A/B inhibitor combination (Table 5).
Setting [18] is: Intrinsic clearance Without inhibitors, without MAO-A/B inhibitor combination (Table 5).
[19] abbreviates: in vitro half-life With inhibitors, 5 μM, with 100 nM clorgyline and 100 nM Deprenyl/Selegiline (Table 4).
The mark [20] stands for this setting: in vitro half-life Without inhibitors, 5 μM, without MAO inhibitors (Table 4).
Where [21] appears, read: human hepatocytes, MAO inhibitors vs none.

The structures appear in SMILES notation.

The record followed here is patent US11471417B2 (Small Pharma Ltd, priority 2020, dated 2022).

Usually half-life stands for the time in which the quantity being followed falls by half. As usually defined, the microsomal CLint is the rate of metabolic loss divided by the concentration. As a reminder, the hepatocyte CLint is the capacity of the preparation to metabolise the compound, expressed as a volume cleared per time.

For the compound `CN(C)CCc1c[nH]c2ccccc12` [SPL026, N,N-dimethyltryptamine], the half-life in series [1] (DMSO Vehicle (no inhibitor)) was 33.7 min; in series [1] (setting [6]), 32.5 min; in series [1] (setting [7]), above 374 min; in series [3] (setting [8]), 8.6 min; in series [3] (setting [9]), 8.8 min; in series [3] (setting [10]), 8.4 min. The half-life in series [3] (setting [11]) turned out to be 7.6 min; in series [3] (setting [12]), 8.3 min; in series [3] (setting [13]), 7.9 min. Moreover, the microsomal CLint in series [1] (DMSO Vehicle (no inhibitor)) is 42.9 µL/min/mg; in series [1] (setting [6]), 42.7 µL/min/mg; in series [1] (setting [7]), below 3.9 µL/min/mg; in series [3] (setting [14]), 175 µL/min/mg. Further, the “increase in intrinsic clearance with MAO-A inhibitor (Clorgyline) compared to SPL026 without MAO inhibitors” value in series [1] (human liver mitochondrial fraction) worked out at 10 fold. Moreover, the half-life at 5 μM in series [2] was 98.9 min; in series [4] (setting [15]), 96.1 min; in series [4] (setting [16]), 92.4 min; in series [4] (setting [19]), 96.1 min; in series [4] (setting [20]) it was 92.4 min. In addition, the values for the intrinsic clearance (hepatocyte CLint) at 5 μM in series [2], in series [4] (setting [17]) and in series [4] (setting [18]) were 19.4 µL/min/1e6 cells, 13.2 µL/min/1e6 cells and 13.8 µL/min/1e6 cells, respectively. Besides, the “Intrinsic Clearance” value in series [3] (setting [8]) is 161.0 μL/min/mg protein. In series [5] (setting [21]), the “slower intrinsic clearance with inclusion of MAO inhibitors” value is reported as around 4%. Also, in series [5] (human hepatocytes), the Half-life % change stood at 3.82%. Also, in series [5] (human hepatocytes), the “Intrinsic clearance % change” value is on record as −4.00%.

Take `[2H]C([2H])(Cc1c[nH]c2ccccc12)N(C)C` [SPL028i, α,α-dideutero-N,N-dimethyltryptamine]: the half-life at 5 μM in series [2] amounted to 233 min; in series [4] (setting [15]) it was 170 min; in series [4] (setting [19]) it was 170 min. For the same compound, the figures for the hepatocyte CLint at 5 μM in series [2], in series [4] (setting [17]) and in series [4] (setting [18]) were 8.3 µL/min/1e6 cells, 7.5 µL/min/1e6 cells and 7.15 µL/min/1e6 cells, respectively. In addition, the half-life in series [3] (setting [8]) was determined as 92.8 min; in series [3] (setting [9]), 86.1 min; in series [3] (setting [10]) it was 99.4 min; in series [3] (setting [11]), 82.6 min; in series [3] (setting [12]), 72.1 min; in series [3] (setting [13]), 77.3 min. Also, the “quicker intrinsic clearance in the presence of MAO inhibitors” value in series [5] (setting [21]) was around 5%. Besides, the “change in intrinsic clearance and half-life compared to SPL026” value in series [5] (initial human hepatocyte studies) is around 2 fold. Also, the Half-life % change in series [5] (human hepatocytes) was −5.33%. Moreover, in series [5] (human hepatocytes), the “Intrinsic clearance % change” value is listed as 4.67%.

As for `NCCc1c[nH]c2ccc(O)cc12` [Serotonin], the half-life was 11.1 min in series [1] (DMSO Vehicle (no inhibitor)); above 420 min in series [1] (setting [7]); 9.3 min in series [3] (setting [9]); 9.1 min in series [3] (setting [10]); 9.1 min in series [3] (setting [11]); 8.5 min in series [3] (setting [12]). Also, the microsomal CLint is 125 µL/min/mg in series [1] (DMSO Vehicle (no inhibitor)), below 3.3 µL/min/mg in series [1] (setting [7]) and 151 µL/min/mg in series [3] (setting [14]). Also, the “Intrinsic Clearance” value in series [3] (setting [8]) was determined as 157.0 μL/min/mg protein. The half-life at 5 μM in series [4] (setting [16]) and in series [4] (setting [20]) was 33 min throughout. In addition, the hepatocyte CLint at 5 μM was found to be 10.1 µL/min/1e6 cells in series [4] (setting [17]) and 38.6 µL/min/1e6 cells in series [4] (setting [18]). The Half-life % change in series [5] (human hepatocytes) is reported as 73.75%. Moreover, the “Intrinsic clearance % change” value in series [5] (human hepatocytes) is −282.18%.

As for `[2H]C([2H])([2H])N(C([2H])([2H])[2H])C([2H])([2H])Cc1c[nH]c2ccccc12` [SPL028viii, α,α-dideutero-N,N-bis(trideutero)dimethyltryptamine], in series [3] (setting [8]), the “Intrinsic Clearance” value came out at 12.7 μL/min/mg protein and the half-life is on record as 112.2 min. In addition, the “increase in metabolic stability” value in series [3] (human mitochondrial fraction assays) worked out at 14 fold. Also, the half-life in series [3] (setting [11]) came out at 92.9 min. This compound came in with a microsomal CLint in series [3] (setting [14]) of 10.9 µL/min/mg.

On to `O=C(O)Cc1ccccc1Nc1c(Cl)cccc1Cl` [Diclofenac], for which, in series [2], the half-life at 5 μM was found to be 20.7 min and the hepatocyte CLint at 5 μM is 92.5 µL/min/1e6 cells.

For the compound `COc1ccc([C@@H]2Sc3ccccc3N(CCN(C)C)C(=O)[C@@H]2OC(C)=O)cc1` [Diltiazem], in series [2], the half-life at 5 μM stood at 87.3 min and the intrinsic clearance (hepatocyte CLint) at 5 μM turned out to be 22 µL/min/1e6 cells.

With `NCc1ccccc1` [Benzylamine], the half-life is 30.4 min in series [1] (DMSO Vehicle (no inhibitor)); above 420 min in series [1] (setting [6]); 24.3 min in series [3] (setting [9]); 22.1 min in series [3] (setting [10]); 21.2 min in series [3] (setting [11]); 23.5 min in series [3] (setting [12]). Besides, the results for the intrinsic metabolic clearance (microsomal CLint) in series [1] (DMSO Vehicle (no inhibitor)), in series [1] (setting [6]) and in series [3] (setting [14]) were 45.7 µL/min/mg, below 3.3 µL/min/mg and 60 µL/min/mg, respectively. In addition, the “Intrinsic Clearance” value in series [3] (setting [8]) turned out to be 62.1 μL/min/mg protein. Besides, the half-life at 5 μM turned out to be 460 min in series [4] (setting [15]), 76.3 min in series [4] (setting [16]), 460 min in series [4] (setting [19]) and 76.3 min in series [4] (setting [20]). In addition, the intrinsic metabolic clearance (hepatocyte CLint) at 5 μM was below 3 µL/min/1e6 cells in series [4] (setting [17]) and 16.7 µL/min/1e6 cells in series [4] (setting [18]). In addition, in series [5] (human hepatocytes), the Half-life % change is above 83.41%. In addition, in series [5] (human hepatocytes), the “Intrinsic clearance % change” value is below −450%.

On to `[2H]C([2H])([2H])N(CCc1c[nH]c2ccccc12)C([2H])([2H])[2H]` [SPL028vii, N,N-bis(trideutero)dimethyltryptamine], for which the half-life in series [3] (setting [11]) was 9.4 min; in series [3] (setting [12]) it was 10.9 min; in series [3] (setting [13]), 10.2 min. The microsomal CLint in series [3] (setting [14]) stood at 137 µL/min/mg.
